Laboratory results: patent US20260356851A1, “TRICYCLIC COMPOUNDS AND USES THEREOF” (HUTCHMED LIMITED, priority 2023, published 2026)

Key:
Type in all cases: cell-based
[1] = molecular target: T1, pERK1/2 (Thr202/Tyr204), NCI-1H358 (KRAS G12C) (Homo sapiens, UniProt P01116, G12C); assay: Assay of intracellular pERK1/2 (Thr202/Tyr204) phosphorylation in NCI-H358 cells (KRAS G12C); conditions: pERK1/2, 2 days, read-out: NCI-H358 (KRAS G12C) IC50
T1 construct: pERK1/2 HTRF read-out
Summary of the method: (§1)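 HTRF detection of Thr202/Tyr204-phosphorylated ERK1/2 (665/615 nm ratio) in lysates from cells treated 2 days with serially 3-fold diluted compound.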

[2] = molecular target: T2, pERK1/2 (Thr202/Tyr204), NCI-1H441 (KRAS G12V) (Homo sapiens, UniProt P01116, G12V); assay: Assay of intracellular pERK1/2 (Thr202/Tyr204) phosphorylation in NCI-H441 cells (KRAS G12V); conditions: pERK1/2, 2 days, read-out: NCI-H441 (KRAS G12V) IC50
T2 construct: pERK1/2 HTRF read-out
Summary of the method: as §1

[3] = molecular target: T3, pERK1/2 (Thr202/Tyr204), PANC-1 (KRAS G121D) (Homo sapiens, UniProt P01116, G12D); assay: Assay of intracellular pERK1/2 (Thr202/Tyr204) phosphorylation in PANC-1 cells (KRAS G12D); conditions: pERK1/2, 2 days, read-out: PANC-1 (KRAS G12D) IC50
T3 construct: pERK1/2 HTRF read-out
Summary of the method: as §1

T1 sequence (P01116 1-188 isoform P01116-2 G12C): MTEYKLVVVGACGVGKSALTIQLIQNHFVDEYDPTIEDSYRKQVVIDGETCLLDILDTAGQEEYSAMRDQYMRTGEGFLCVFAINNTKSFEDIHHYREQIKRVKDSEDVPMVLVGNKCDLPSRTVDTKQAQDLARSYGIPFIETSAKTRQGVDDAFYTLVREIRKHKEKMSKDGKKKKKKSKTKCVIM
T3 sequence (P01116 1-188 isoform P01116-2 G12D): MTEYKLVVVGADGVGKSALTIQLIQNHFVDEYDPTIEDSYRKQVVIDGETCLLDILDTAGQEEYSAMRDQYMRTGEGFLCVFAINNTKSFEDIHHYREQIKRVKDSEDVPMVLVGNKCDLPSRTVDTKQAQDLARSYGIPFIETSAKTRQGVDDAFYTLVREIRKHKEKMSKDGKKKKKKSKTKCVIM
T2 sequence (P01116 1-188 isoform P01116-2 G12V): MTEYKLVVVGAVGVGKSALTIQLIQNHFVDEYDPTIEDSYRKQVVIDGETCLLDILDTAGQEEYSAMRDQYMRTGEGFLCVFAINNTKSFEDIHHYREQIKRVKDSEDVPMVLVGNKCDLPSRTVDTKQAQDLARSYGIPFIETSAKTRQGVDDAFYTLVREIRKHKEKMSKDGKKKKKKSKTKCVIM

SMILES	IC50 [1] [nM]	IC50 [2] [nM]	IC50 [3] [nM]
[2H]C1([2H])Oc2nc(-c3cc(N)c(F)c(Cl)c3C(F)(F)F)c(F)c3nc(OC[C@@H]4C[C@@H](F)CN4C)nc(c23)N(C(C)c2cccnc2N)C1([2H])[2H] (single isomer, unassigned) [Compound 208, 3-((R or S)-1-(5-(5-amino-3-chloro-4-fluoro-2-(trifluoromethyl)phenyl)-4-fluoro-2-(((2S,4R)-4-fluoro-1-methylpyrrolidin-2-yl)methoxy)-8,9-dihydro-10H-7-oxa-1,3,6,10-tetraazacyclohepta[de]naphthalen-10-yl-8,8,9,9-d4)ethyl)pyridin-2-amine]	0.4	1	10
C[C@H](c1cccnc1N)N1CCOc2nc(-c3cc(O)cc(Cl)c3C3CC3)c(F)c3nc(OC[C@@H]4CCN4CC(F)F)nc1c23 (single isomer, unassigned) [Compound 20, 3-(10-((R or S)-1-(2-aminopyridin-3-yl)ethyl)-2-(((S)-1-(2,2-difluoroethyl)azetidin-2-yl)methoxy)-4-fluoro-9,10-dihydro-8H-7-oxa-1,3,6,10-tetraazacyclohepta[de]naphthalen-5-yl)-5-chloro-4-cyclopropylphenol]	783	> 1000	> 1000
CC(c1cc(F)cnc1N)N1c2nc(OC[C@@]34CCCN3C[C@H](F)C4)nc3c(F)c(-c4c5cn[nH]c5cc5cccc(F)c45)nc(c23)OC[C@@H]1C (stereo partly drawn) [Compound 367]	0.2	0.4	1
[2H]C([2H])([2H])N1CCC[C@H]1COc1nc2c3c(nc(-c4cc(N)cc(C)c4C(F)(F)F)c(F)c3n1)OCCN2C(C)c1cccnc1N (single isomer, unassigned) [Compound 96, 3-((R or S)-1-(5-(5-amino-3-methyl-2-(trifluoromethyl)phenyl)-4-fluoro-2-(((S)-1-(methyl-d3)pyrrolidin-2-yl)methoxy)-8,9-]	27	57	> 100
CC(c1cccnc1N)N1CCOc2nc(-c3cc(O)cc4ccc(F)c(F)c34)c(F)c3ncnc1c23 (stereo not drawn) [Compound 22]	38	105	393
CC(c1cccnc1N)N1CCOc2nc(-c3cc(N)c(F)cc3C(F)(F)F)c(F)c3nc(OC[C@@]45CCCN4C[C@H](F)C5)nc1c23 (single isomer, unassigned) [Compound 144, 3-((R or S)-1-(5-(5-amino-4-fluoro-2-(trifluoromethyl)phenyl)-4-fluoro-2-(((2R,7aS)-2-fluorotetrahydro-1H-pyrrolizin-7a(5H)-yl)methoxy)-8,9-dihydro-10H-7-oxa-1,3,6,10-tetraazacyclohepta[de]naphthalen-10-yl)ethyl)pyridin-2-amine]	0.4	2	17
[2H]C1([2H])Oc2nc(-c3cc(N)c(F)c(C)c3C(F)(F)F)c(F)c3nc(OC[C@@]45CCCN4C[C@H](F)C5)nc(c23)N(C(C)c2cccnc2N)C1([2H])[2H] (single isomer, unassigned) [Compound 199, 3-((R or S)-1-(5-(5-amino-4-fluoro-3-methyl-2-(trifluoromethyl)phenyl)-4-fluoro-2-(((2R,7aS)-2-fluorotetrahydro-1H-pyrrolizin-7a(5H)-yl)methoxy)-8,9-dihydro-10H-7-oxa-1,3,6,10-tetraazacyclohepta[de]naphthalen-10-yl-8,8,9,9-d4)ethyl)pyridin-2-amine]	0.2	0.2	1
[2H]C1([2H])CN(C(C)c2cccnc2N)c2nc(OC[C@@]34CCCN3C[C@H](F)C4)nc3c(F)c(-c4cc(N)c(F)c(C)c4C(F)(F)F)nc(c23)O1 (single isomer, unassigned) [Compound 183, 3-((R or S)-1-(5-(5-amino-4-fluoro-3-methyl-2-(trifluoromethyl)phenyl)-4-fluoro-2-(((2R,7aS)-2-fluorotetrahydro-1H-pyrrolizin-7a(5H)-yl)methoxy)-8,9-dihydro-10H-7-oxa-1,3,6,10-tetraazacyclohepta[de]naphthalen-10-yl-8,8-d2)ethyl)pyridin-2-amine]	0.1	0.3	1
CC(c1cccnc1N)N1c2nc(OC[C@@H]3C[C@@H](F)CN3C)nc3c(F)c(-c4cc(O)cc5ccc(F)c(F)c45)nc(c23)OC[C@@H]1C (stereo partly drawn) [Compound 281]	0.2	0.5	1
CC(c1cccnc1N)N1c2nc(OC[C@@]34CCCN3C[C@H](F)C4)nc3c(F)c(-c4cc(O)cc(Cl)c4C4CC4)nc(c23)OC[C@@H]1C (stereo partly drawn) [Compound 268]	0.2	0.5	0.4

The next lines start with the values.

IC50 [1] [nM]	IC50 [2] [nM]	IC50 [3] [nM]	SMILES
3	10	> 100	[2H]C([2H])(Oc1nc2c3c(nc(-c4cc(N)cc(C)c4C(F)(F)F)c(F)c3n1)OCCN2C(C)c1cccnc1N)[C@@H]1C[C@@H](F)CN1C([2H])([2H])[2H] (single isomer, unassigned) [Compound 133, 3-((R or S)-1-(5-(5-amino-3-methyl-2-(trifluoromethyl)phenyl)-4-fluoro-2-(((2S,4R)-4-fluoro-1-(methyl-d3)pyrrolidin-2-yl)methoxy-d2)-8,9-dihydro-10H-7-oxa-1,3,6,10-tetraazacyclohepta[de]naphthalen-10-yl)ethyl)pyridin-2-amine]
> 100	> 100	> 100	Cc1cc2[nH]ncc2c(-c2nc3c4c(nc(OC[C@@]56CCCN5C[C@H](F)C6)nc4c2F)N(C(C)c2cccnc2N)[C@@H]2COCC[C@H]2O3)c1C(F)(F)F (stereo partly drawn) [Compound 392]
16	36	> 100	Cc1nc(N)cc(-c2nc3c4c(nc(OC[C@@H]5CCCN5C)nc4c2F)N(C(C)c2cccnc2N)CCO3)c1C(F)(F)F (stereo partly drawn) [Compound 97]
> 100	> 100	> 100	CC(c1cccnc1N)N1CCOc2nc(-c3cc(N)cc(F)c3C(F)(F)F)c(F)c3nc(OC[C@@H]4C[C@@H](F)CN4C)nc1c23 (single isomer, unassigned) [Compound 93, 3-((R or S)-1-(5-(5-amino-3-fluoro-2-(trifluoromethyl)phenyl)-4-fluoro-2-(((2S,4R)-4-fluoro-1-methylpyrrolidin-2-yl)methoxy)-8,9-dihydro-10H-7-oxa-1,3,6,10-tetraazacyclohepta[de]naphthalen-10-yl)ethyl)pyridin-2-amine]
0.2	0.6	2	CC(c1cccnc1N)N1CCOc2nc(-c3cc(N)c(F)c(Cl)c3C(F)(F)F)c(F)c3nc(OC[C@@]45CCCN4CC4(CC4(F)F)C5)nc1c23 (single isomer, unassigned) [Compound 227]
28	> 100	> 100	Cc1c(-c2nc3c4c(nc(OC[C@@]56CCCN5C[C@H](F)C6)nc4c2F)N(C(C)c2cccnc2N)[C@@H](C)CO3)ccc2cn[nH]c12 (stereo partly drawn) [Compound 324]
